Measured values: paper PMC10797628
Numbering of substitutions follows the chain as printed.

How the values were obtained:
[1] = test system: mouse model of fragile X syndrome; set-up: method as in PMID 32566916; conditions: cited from earlier work
[2] = set-up: method as in PMID 26011730; conditions: cited from earlier work
N7.39T 5-HT1A receptor = molecular target: T1, N7.39T 5-HT1A receptor (Homo sapiens, UniProt P08908, N386T); test: Radioligand binding, N7.39T 5-HT1A
T1 sequence (P08908 1-422 N386T): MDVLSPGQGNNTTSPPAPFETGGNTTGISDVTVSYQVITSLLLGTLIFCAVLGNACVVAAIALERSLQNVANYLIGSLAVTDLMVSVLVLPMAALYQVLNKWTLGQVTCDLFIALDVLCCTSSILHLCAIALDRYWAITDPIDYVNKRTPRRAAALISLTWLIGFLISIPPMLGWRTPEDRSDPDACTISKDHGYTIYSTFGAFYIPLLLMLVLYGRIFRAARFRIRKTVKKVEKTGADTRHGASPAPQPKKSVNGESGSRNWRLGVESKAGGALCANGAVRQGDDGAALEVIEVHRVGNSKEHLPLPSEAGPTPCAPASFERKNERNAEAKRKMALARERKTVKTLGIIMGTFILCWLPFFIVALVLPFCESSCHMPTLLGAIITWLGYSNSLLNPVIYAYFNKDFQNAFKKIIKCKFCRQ
Method: (§1) 48 hours after transfection with the desired receptor construct, cells were isolated for saturation and competition binding assays as previously described.[47],[48],[57] Saturation and competition radioligand binding assays were conducted in an assay buffer consisting of 50 mM Tris HCl, 10 mM MgCl2, and 0.1 mM EDTA in filtered deionized water. […] Briefly, 5–10 μg of the receptor protein, as determined by a Thermo Fisher Pierce BCA protein assay kit, was incubated with 8 concentrations of radioligand in triplicate to determine total binding. […] Nonspecific binding was determined as above for saturation assays.
(§2) For radioligand binding data, nonspecific binding was subtracted from the total binding to get specific binding. Saturation binding data was fit to the “binding saturation-specific binding with hill slope” model. Competition binding data were fit to the “binding competition-one-site fit Ki” non-linear regression model and transformed to pKi values, reported as mean ± SD.
(§3) is 50 mM Tris HCl, 10 mM MgCl2 and 0.1 mM EDTA in filtered deionized water.

Y5.38A 5-HT1A receptor = molecular target: T2, Y5.38A 5-HT1A receptor (Homo sapiens, UniProt P08908, Y195A); test: Radioligand binding, Y5.38A 5-HT1A
T2 sequence (P08908 1-422 Y195A): T1 sequence (P08908 1-422 N386T) with Y195A, T386N
Method: as §1, §2, §3

Row | Compound | prosocial behaviors [1] | repetitive behaviors [1] | spontaneous seizures [1] | oral activity [2] | sedation [2] | Ki (N7.39T 5-HT1A receptor) | Ki (Y5.38A 5-HT1A receptor)
1 | CN(C)[C@H]1CCc2c(cccc2-c2ccccc2F)C1 [(S)-FPT] | increased | reduced | reduced | orally active | did not cause sedation |  | 
2 | CN(C)[C@H]1CCc2c(cccc2-c2cccc3ccccc23)C1 [(S)-NAP] |  |  |  |  |  | 66.1 nM | 245 nM
3 | Fc1ccccc1-c1cccc2c1CC[C@H](N1CCCC1)C2 [(S)-PFPT] |  |  |  |  |  | 8.51 nM | 0.955 nM
